Data on four sequences can be found in patent publication US20070128217A1 (priority 2003, published 2007).

In assay [1] the test system is antibodies in sera from SARS patients (sera 1a, 1b, 2, 6, 37, 62, London, SARS-yellow, SARS-green). The assay is classed as binding, human. Also on record: Binding of serum 6 to linear peptides of protein X1 of SARS-CoV Urbani / Binding of serum 37 to linear peptides of protein X1 of SARS-CoV Urbani / Binding of serum 6 to looped/cyclic peptide (PEPSCAN-ELISA) / Binding of serum 37 to looped/cyclic peptide (PEPSCAN-ELISA) / Binding of serum 37 to looped/cyclic peptides of protein X1 of SARS-CoV Urbani / Binding of serum 6 to linear peptides of protein X2 / Binding of serum 37 to linear peptides of protein X2 / Binding of serum 37 to looped/cyclic peptides of protein X2 of SARS-CoV Urbani / Binding of serum 6 to linear peptides of protein M of SARS-CoV Urbani / Binding of serum 37 to linear peptides of protein M of SARS-CoV Urbani / Binding of serum 6 to looped/cyclic peptides of protein M of SARS-CoV Urbani / Binding of serum 37 to looped/cyclic peptides of protein M of SARS-CoV Urbani / Binding of serum 6 to linear peptides of protein X3 of SARS-CoV Urbani / Binding of serum 37 to linear peptides of protein X3 of SARS-CoV Urbani / Binding of serum 37 to looped/cyclic peptides of protein X3 of SARS-CoV Urbani / Binding of serum 6 to linear peptides of protein X4 of SARS-CoV Urbani / Binding of serum 37 to linear peptides of protein X4 of SARS-CoV Urbani / Binding of serum 37 to looped/cyclic peptides of protein X4 of SARS-CoV Urbani / Binding of serum 6 to linear peptides of protein X5 of SARS-CoV Urbani / Binding of serum 37 to linear peptides of protein X5 of SARS-CoV Urbani / Binding of serum 37 to looped/cyclic peptides of protein X5 of SARS-CoV Urbani / Binding of serum 6 to linear peptides of protein N of SARS-CoV Urbani / Binding of serum 37 to linear peptides of protein N of SARS-CoV Urbani / Binding of serum 6 to linear peptide (PEPSCAN-ELISA) / Binding of serum 1a to looped/cyclic peptides of protein N of SARS-CoV Urbani / Binding of serum 1b to looped/cyclic peptides of protein N of SARS-CoV Urbani / Binding of serum 2 to looped/cyclic peptides of protein N of SARS-CoV Urbani / Binding of serum 6 to looped/cyclic peptides of protein N of SARS-CoV Urbani / Binding of serum 37 to looped/cyclic peptides of protein N of SARS-CoV Urbani / Binding of serum 62 to looped/cyclic peptides of protein N of SARS-CoV Urbani / Binding of serum London to looped/cyclic peptides of protein N of SARS-CoV Urbani / Binding of serum SARS-green to looped/cyclic peptides of protein N of SARS-CoV Urbani: unit not given here.

The test system of assay [2] is control sera (pooled serum of ten healthy LUMC hospital workers; commercial negative donor pooled serum from the Dutch bloodbank). Type of assay: binding, human.
The test system of assay [3] is rabbit serum obtained by immunizing a rabbit with the SARS-CoV strain Frankfurt 1. The assay is classed as binding. Also on record: Binding of a rabbit serum to linear peptides / Binding of a rabbit serum to looped peptides / Rabbit serum linear peptides / Rabbit serum looped peptides / Binding of a rabbit serum to linear peptides of protein N of SARS-CoV Urbani (Rabbit serum linear peptides) / Binding of a rabbit serum to looped/cyclic peptides of protein N of SARS-CoV Urbani (Rabbit serum looped peptides): unit not given here.

IAEILIIIMRTFRIA: in assay [1], the “Binding of serum 1a to linear peptides of protein X3 of SARS-CoV Urbani” value was found to be 0.8, the “Binding of serum 1a to looped/cyclic peptides of protein X3 of SARS-CoV Urbani” value was 0.7, the “Binding of serum 1b to linear peptides of protein X3 of SARS-CoV Urbani” value was 0.5 and the “Binding of serum 1b to looped/cyclic peptides of protein X3 of SARS-CoV Urbani” value was 0.3. Further, in assay [1], the “Binding of serum 2 to linear peptides of protein X3 of SARS-CoV Urbani” value was determined as 0.6, the “Binding of serum 2 to looped/cyclic peptides of protein X3 of SARS-CoV Urbani” value was 0.5, the “Binding of serum 6 to linear peptides of protein X3 of SARS-CoV Urbani” value amounted to 0.0 and the “Binding of serum 6 to looped/cyclic peptides of protein X3 of SARS-CoV Urbani” value turned out to be 0.7. Also, in assay [1], the “Binding of serum 37 to linear peptides of protein X3 of SARS-CoV Urbani” value stood at 0.6, the “Binding of serum 37 to looped/cyclic peptides of protein X3 of SARS-CoV Urbani” value is given as 0.4, the “Binding of serum 62 to linear peptides of protein X3 of SARS-CoV Urbani” value came out at 0.7 and the “Binding of serum 62 to looped/cyclic peptides of protein X3 of SARS-CoV Urbani” value came to 0.4. Further, in assay [1], the “Binding of serum London to linear peptides of protein X3 of SARS-CoV Urbani” value turned out to be 0.7, the “Binding of serum London to looped/cyclic peptides of protein X3 of SARS-CoV Urbani” value worked out at 0.8, the “Binding of serum SARS-green to linear peptides of protein X3 of SARS-CoV Urbani” value turned out to be 0.3 and the “Binding of serum SARS-green to looped/cyclic peptides of protein X3 of SARS-CoV Urbani” value was found to be 0.2. In assay [1], the “Binding of serum SARS-yellow to linear peptides of protein X3 of SARS-CoV Urbani” value came to 0.3 and the “Binding of serum SARS-yellow to looped/cyclic peptides of protein X3 of SARS-CoV Urbani” value was found to be 0.6. Further, in assay [2], the “Binding of Control Serum Blood-Bank to Looped peptides of the protein X3 of SARS-CoV Urbani” value was 0.8, the “Binding of Control serum Blood-bank to linear peptides of the protein X3 of SARS-CoV Urbani” value is recorded as 0.9, the “Binding of Control serum LUMC to linear peptides of the protein X3 of SARS-CoV Urbani” value stood at 0.5 and the “Binding of Control serum LUMC to looped peptides of the protein X3 of SARS-CoV Urbani” value was 0.9. In assay [3], the “Rabbit serum linear peptides” value was 0.3 and the “Rabbit serum looped peptides” value was 0.2.

Regarding LIVNSVLLFLAFVVF, in assay [1], the “Binding of serum 1a to linear peptides of protein E of SARS-CoV Urbani” value came out at 0.8, the “Binding of serum 1a to looped/cyclic peptides of protein E of SARS-CoV Urbani” value was 0.5, the “Binding of serum 1b to linear peptides of protein E of SARS-CoV Urbani” value is on record as 0.6 and the “Binding of serum 1b to looped/cyclic peptides of protein E of SARS-CoV Urbani” value turned out to be 0.4. In assay [1], the “Binding of serum 2 to linear peptides of protein E of SARS-CoV Urbani” value came to 0.4, the “Binding of serum 2 to looped/cyclic peptides of protein E of SARS-CoV Urbani” value is recorded as 0.5, the “Binding of serum 6 to linear peptides of protein E of SARS-CoV Urbani” value is 0.7 and the “Binding of serum 6 to looped/cyclic peptides of protein E of SARS-CoV Urbani” value was found to be 0.4. In assay [1], the “Binding of serum 37 to linear peptides of protein E of SARS-CoV Urbani” value is recorded as 0.6, the “Binding of serum 37 to looped/cyclic peptides of protein E of SARS-CoV Urbani” value was 0.5, the “Binding of serum 62 to linear peptides of protein E of SARS-CoV Urbani” value is 0.6 and the “Binding of serum 62 to looped/cyclic peptides of protein E of SARS-CoV Urbani” value is recorded as 0.6. Further, in assay [1], the “Binding of serum London to linear peptides of protein E of SARS-CoV Urbani” value was 0.4, the “Binding of serum London to looped/cyclic peptides of protein E of SARS-CoV Urbani” value was 0.3, the “Binding of serum SARS-green to linear peptides of protein E of SARS-CoV Urbani” value is reported as 0.4 and the “Binding of serum SARS-green to looped/cyclic peptides of protein E of SARS-CoV Urbani” value came to 0.2. Further, in assay [1], the “Binding of serum SARS-yellow to linear peptides of protein E of SARS-CoV Urbani” value amounted to 0.3 and the “Binding of serum SARS-yellow to looped/cyclic peptides of protein E of SARS-CoV Urbani” value turned out to be 0.5. Moreover, in assay [2], the “Binding of Control Serum Blood-Bank to Looped peptides” value is listed as 0.8, the “Binding of Control serum Blood-bank to linear peptides” value was 0.5, the “Binding of Control serum LUMC to linear peptides” value is given as 0.3 and the “Binding of Control serum LUMC to looped peptides” value is 0.8. Also, in assay [3], the “Binding of a rabbit serum to linear peptides” value is 0.5 and the “Binding of a rabbit serum to looped peptides” value is on record as 0.3.

In the case of LLFLAFVVFLLVTLA, in assay [1], the “Binding of serum 1a to linear peptides of protein E of SARS-CoV Urbani” value is recorded as 0.8, the “Binding of serum 1a to looped/cyclic peptides of protein E of SARS-CoV Urbani” value is listed as 0.7, the “Binding of serum 1b to linear peptides of protein E of SARS-CoV Urbani” value is 0.6 and the “Binding of serum 1b to looped/cyclic peptides of protein E of SARS-CoV Urbani” value amounted to 0.4. In assay [1], the “Binding of serum 2 to linear peptides of protein E of SARS-CoV Urbani” value was 0.5, the “Binding of serum 2 to looped/cyclic peptides of protein E of SARS-CoV Urbani” value amounted to 0.6, the “Binding of serum 6 to linear peptides of protein E of SARS-CoV Urbani” value worked out at 0.7 and the “Binding of serum 6 to looped/cyclic peptides of protein E of SARS-CoV Urbani” value came out at 0.4. For the same sequence, in assay [1], the “Binding of serum 37 to linear peptides of protein E of SARS-CoV Urbani” value was 0.7, the “Binding of serum 37 to looped/cyclic peptides of protein E of SARS-CoV Urbani” value worked out at 0.7, the “Binding of serum 62 to linear peptides of protein E of SARS-CoV Urbani” value worked out at 0.7 and the “Binding of serum 62 to looped/cyclic peptides of protein E of SARS-CoV Urbani” value came to 0.7. Besides, in assay [1], the “Binding of serum London to linear peptides of protein E of SARS-CoV Urbani” value is on record as 0.5, the “Binding of serum London to looped/cyclic peptides of protein E of SARS-CoV Urbani” value stood at 0.4, the “Binding of serum SARS-green to linear peptides of protein E of SARS-CoV Urbani” value is on record as 0.4 and the “Binding of serum SARS-green to looped/cyclic peptides of protein E of SARS-CoV Urbani” value is 0.4. Moreover, in assay [1], the “Binding of serum SARS-yellow to linear peptides of protein E of SARS-CoV Urbani” value was 0.2 and the “Binding of serum SARS-yellow to looped/cyclic peptides of protein E of SARS-CoV Urbani” value is listed as 0.7. For the same sequence, in assay [2], the “Binding of Control Serum Blood-Bank to Looped peptides” value was found to be 0.5, the “Binding of Control serum Blood-bank to linear peptides” value was 0.6, the “Binding of Control serum LUMC to linear peptides” value amounted to 0.4 and the “Binding of Control serum LUMC to looped peptides” value came out at 0.7. In addition, in assay [3], the “Binding of a rabbit serum to linear peptides” value stood at 0.6 and the “Binding of a rabbit serum to looped peptides” value came out at 0.4.

For MYSFVSEETGTLIVN, in assay [1], the “Binding of serum 1a to linear peptides of protein E of SARS-CoV Urbani” value turned out to be 0.8, the “Binding of serum 1a to looped/cyclic peptides of protein E of SARS-CoV Urbani” value was found to be 0.7, the “Binding of serum 1b to linear peptides of protein E of SARS-CoV Urbani” value is on record as 0.8 and the “Binding of serum 1b to looped/cyclic peptides of protein E of SARS-CoV Urbani” value came to 0.5. In assay [1], the “Binding of serum 2 to linear peptides of protein E of SARS-CoV Urbani” value amounted to 0.6, the “Binding of serum 2 to looped/cyclic peptides of protein E of SARS-CoV Urbani” value is reported as 0.6, the “Binding of serum 6 to linear peptides of protein E of SARS-CoV Urbani” value was 0.6 and the “Binding of serum 6 to looped/cyclic peptides of protein E of SARS-CoV Urbani” value came to 0.5. In addition, in assay [1], the “Binding of serum 37 to linear peptides of protein E of SARS-CoV Urbani” value was found to be 0.8, the “Binding of serum 37 to looped/cyclic peptides of protein E of SARS-CoV Urbani” value worked out at 0.7, the “Binding of serum 62 to linear peptides of protein E of SARS-CoV Urbani” value turned out to be 0.8 and the “Binding of serum 62 to looped/cyclic peptides of protein E of SARS-CoV Urbani” value is listed as 0.8. Besides, in assay [1], the “Binding of serum London to linear peptides of protein E of SARS-CoV Urbani” value is given as 0.6, the “Binding of serum London to looped/cyclic peptides of protein E of SARS-CoV Urbani” value is 0.4, the “Binding of serum SARS-green to linear peptides of protein E of SARS-CoV Urbani” value came to 0.6 and the “Binding of serum SARS-green to looped/cyclic peptides of protein E of SARS-CoV Urbani” value was 0.4. Moreover, in assay [1], the “Binding of serum SARS-yellow to linear peptides of protein E of SARS-CoV Urbani” value is recorded as 0.1 and the “Binding of serum SARS-yellow to looped/cyclic peptides of protein E of SARS-CoV Urbani” value stood at 0.8. For the same sequence, in assay [2], the “Binding of Control Serum Blood-Bank to Looped peptides” value worked out at 0.6, the “Binding of Control serum Blood-bank to linear peptides” value turned out to be 0.8, the “Binding of Control serum LUMC to linear peptides” value is 0.7 and the “Binding of Control serum LUMC to looped peptides” value turned out to be 0.8. In addition, in assay [3], the “Binding of a rabbit serum to linear peptides” value was 0.5 and the “Binding of a rabbit serum to looped peptides” value came to 0.2.
